From US20170042196A1, “USE OF UMAMI COMPOUNDS TO ENHANCE SALTINESS” (Senomyx, Inc., priority 2015, published 2017)

Legend:
Format in all cases: in vivo
[1] = system: trained panelists (saltiness perception); test: 2-Alternative Forced Choice human taste test, saltiness in chicken broth (low sodium broth + 100 mM NaCl); details: for Sample selected as saltier by panelists (Total): 0.1% ethanol, 55° C.; for saltiness of test sample versus control sample: p<0.1
Description: Samples of chicken broth were prepared and compared using human taste tests. Control samples contained chicken broth alone. Test samples contained the same chicken broth to which a specific umami compound was added at a specified concentration. To prepare the test sample, a concentrated stock solution of an umami compound was prepared in ethanol. The stock solution was added to a commercially available no-MSG added, low sodium chicken broth (Pacific Organic Free Range Chicken Broth Low Sodium), to which 100 mM NaCl was also added, resulting in a final concentration of the umami compound in the test sample with 0.1% ethanol. To create the control sample, 100 mM NaCl was added to the low sodium chicken broth, and it was balanced with 0.1% ethanol. All samples were served at 55° C. A 2-Alternative Forced Choice test was used, where panelists received two three-digit blind-coded samples, one control and one test sample, in randomized, counter-balanced order. Panelists tasted samples, rinsing with water between samples, and indicated which of the two samples was […]. The results were analyzed using a binomial distribution with alpha=0.1.

[2] = system: trained panelists (saltiness perception); test: 2-Alternative Forced Choice human taste test, saltiness in low sodium chicken broth; details: for Sample selected as saltier by panelists (Total): 55° C.; for saltiness of test sample versus control sample: p<0.1
Description: Samples of low sodium chicken broth were prepared and compared using human taste tests. Control samples contained low sodium chicken broth alone. Test samples contained the same low sodium chicken broth to which a specific umami compound was added at a specified concentration. To prepare the test sample, a concentrated stock solution of an umami compound was prepared in ethanol. […] To create the control sample, the chicken broth was balanced with 0.1% ethanol. All samples were served at 55° C. Trained panelists were used to complete the test with three replicates (subject number reported in each table). A 2-Alternative Forced Choice test was used, where panelists received two three-digit blind-coded samples, one control and one test sample, in randomized, counter-balanced order. Panelists tasted samples, rinsing with water between samples, and indicated which of the two samples was […]. The results were analyzed using a binomial distribution with alpha=0.1.

[3] = system: trained panelists (saltiness perception); test: Difference from Reference scaling human taste test, saltiness in low sodium chicken broth
Description: Samples of low sodium chicken broth were prepared and compared using human taste tests. The reference samples contained low sodium chicken broth alone. The test samples contained the same low sodium chicken broth to which a specific umami compound was added. To prepare the test samples, a concentrated stock solution of an umami compound was prepared in ethanol. The stock solution was added to a commercially available no-MSG added, low sodium chicken broth (Pacific Organic Free Range Chicken Broth Low Sodium), resulting in a final concentration of the umami compound in the test sample with 0.1% ethanol. To create the reference sample, the low sodium chicken broth was balanced with 0.1% ethanol. All samples were served at 55° C. Trained panelists were used to complete the test with two replicates (subject number reported in each table). A Difference from Reference scaling test was used. Panelists received pairs of samples, consisting of the reference sample and a three-digit blind coded sample, which was either the reference sample again (i.e., a negative control), or the test sample containing the compound of interest. Panelists first tasted the reference sample, then rinsed with water and tasted the blind-coded sample. Panelists were asked to score the test sample for differences in saltiness as compared to the reference sample. […] The test also included measurement of other attributes rated on separate scales (e.g., umami intensity, bitterness, and chicken flavor) to ensure responses for saltiness focused solely on that attribute. The order in which panelists received sample pairs containing either the reference or the test sample as the three-digit blind coded sample was randomized and counterbalanced. The results were analyzed using a two-tailed Student's t-test, with alpha=0.1.

SMILES: CCCC(CCC)NC(=O)c1ccc2c(c1)OCO2 [Formula (1a)]
- Sample selected as saltier by panelists (Total) ([1]; 2 ppm in chicken broth (100 mM NaCl added), n = 48 (16 panelists × 3 replicates)): 31
- saltiness of test sample versus control sample ([1]; 2 ppm in chicken broth (100 mM NaCl added)): significantly saltier
- Sample selected as saltier by panelists (Total) ([2]; 2 ppm in low sodium chicken broth, 0.05% ethanol, n = 48 (16 panelists × 3 replicates)): 35
- saltiness of test sample versus control sample ([2]; 2 ppm in low sodium chicken broth): significantly saltier

SMILES: COc1cccc(-c2n[nH]c(SCc3ccccn3)n2)c1OC [Formula (1b)]
- Sample selected as saltier by panelists (Total) ([2]; 5 ppm in low sodium chicken broth, 0.1% ethanol, n = 48 (16 panelists × 3 replicates)): 33
- saltiness of test sample versus control sample ([2]; 5 ppm in low sodium chicken broth): significantly saltier
- Average Saltiness Score of Test Sample as compared to Reference Sample ([3]; 5 ppm in low sodium chicken broth, 11-point scale −5 to +5, n = 24 (12 panelists × 2 replicates)): 0.7
- saltiness of test sample versus reference sample ([3]; 5 ppm in low sodium chicken broth, p<0.1): significantly saltier

SMILES: COc1cc(C)ccc1CNC(=O)C(=O)NCCc1ccccn1 [Formula (1c)]
- Sample selected as saltier by panelists (Total) ([1]; 1 ppm in chicken broth (100 mM NaCl added), n = 51 (17 panelists × 3 replicates)): 33
- saltiness of test sample versus control sample ([1]; 1 ppm in chicken broth (100 mM NaCl added)): significantly saltier
- Sample selected as saltier by panelists (Total) ([2]; 1 ppm in low sodium chicken broth, 0.1% ethanol, n = 48 (16 panelists × 3 replicates)): 36
- saltiness of test sample versus control sample ([2]; 1 ppm in low sodium chicken broth): significantly saltier

SMILES: COc1cccc(CNC(=O)C(=O)NCCc2ccccn2)c1OC [Formula (1d)]
- Sample selected as saltier by panelists (Total) ([1]; 8 ppm in chicken broth (100 mM NaCl added), n = 48 (16 panelists × 3 replicates)): 31
- saltiness of test sample versus control sample ([1]; 8 ppm in chicken broth (100 mM NaCl added)): significantly saltier
- Sample selected as saltier by panelists (Total) ([2]; 8 ppm in low sodium chicken broth, 0.1% ethanol, n = 51 (17 panelists × 3 replicates)): 37
- saltiness of test sample versus control sample ([2]; 8 ppm in low sodium chicken broth): significantly saltier
- Average Saltiness Score of Test Sample as compared to Reference Sample ([3]; 8 ppm in low sodium chicken broth, 11-point scale −5 to +5, n = 30 (15 panelists × 2 replicates)): 0.8
- saltiness of test sample versus reference sample ([3]; 8 ppm in low sodium chicken broth, p<0.1): significantly saltier

SMILES: COC[C@@H](CC(C)C)NC(=O)c1ccc(C)c(C)c1 [Formula (1e)]
- Sample selected as saltier by panelists (Total) ([2]; 2 ppm in low sodium chicken broth, 0.1% ethanol, n = 51 (17 panelists × 3 replicates)): 32
- saltiness of test sample versus control sample ([2]; 2 ppm in low sodium chicken broth, 0.1% ethanol): significantly saltier
- Average Saltiness Score of Test Sample as compared to Reference Sample ([3]; 2 ppm in low sodium chicken broth, 11-point scale −5 to +5, n = 30 (15 panelists × 2 replicates)): 0.5
- saltiness of test sample versus reference sample ([3]; 2 ppm in low sodium chicken broth, p<0.1): significantly saltier

SMILES: COc1cc(C)ccc1CNC(=O)C(=O)NCCc1ccc(C)cn1 [Formula (1f)]
- Sample selected as saltier by panelists (Total) ([1]; 2 ppm Formula (1f) in chicken broth (100 mM NaCl added), n = 48 (16 panelists × 3 replicates)): 32
- saltiness of test sample versus control sample ([1]; 2 ppm Formula (1f) in chicken broth (100 mM NaCl added)): significantly saltier
- Average Saltiness Score of Test Sample as compared to Reference Sample ([3]; 1 ppm in low sodium chicken broth, 11-point scale −5 to +5, n = 26 (13 panelists × 2 replicates)): 1.0
- saltiness of test sample versus reference sample ([3]; 1 ppm in low sodium chicken broth, n = 26, p<0.1): significantly saltier

SMILES: COc1ccc(CNC(=O)C(=O)NCCc2ccccn2)c(OC)c1 [Formula (1g)]
- Average Saltiness Score of Test Sample as compared to Reference Sample ([3]; 1 ppm in low sodium chicken broth, 11-point scale −5 to +5, n = 30 (15 panelists × 2 replicates)): 0.5
- saltiness of test sample versus reference sample ([3]; 1 ppm in low sodium chicken broth, n = 30, p<0.1): significantly saltier
